What was measured:
[1] = Recovery of epirubicin-glucuronide following intravenous epirubicin at 4 mg.Kg-1 dose in rat; assay type: ADME, organism-based, SD, Plasma; settings: in vivo
[2] = (§1) Urinary excretion of epirubicin glucuronide following epirubicin at 50 mg.m-2 dose in cancer patients; assay type: ADME, organism-based, Urine; settings: human, in vivo; at 50 mg/m2
[3] = Biliary excretion of epirubicin glucuronide following epirubicin at 50 mg.m-2 dose in cancer patients; assay type: ADME, organism-based, Bile; settings: human, in vivo; at 50 mg/m2
[4] = AUC(0-2 h) of epirubicin-glucuronide following intravenous epirubicin at 3 mg.Kg-1 dose in rabbit; assay type: ADME, organism-based, Oryctolagus cuniculus, New Zealand White, Plasma; settings: in vivo
[5] = (§2) Urinary excretion of epirubicinol glucuronide following epirubicin at 50 mg.m-2 dose in cancer patients; assay type: ADME, organism-based, Urine; settings: human, in vivo; at 50 mg/m2
[6] = Terminal half-life of epirubicinol-glucuronide following intravenous epirubicin at 1 mg.Kg-1 dose in rabbit; assay type: ADME, organism-based, Oryctolagus cuniculus, New Zealand White, Plasma; settings: in vivo
[7] = Recovery of epirubicinol-glucuronide following intravenous epirubicin at 1.5 mg.Kg-1 dose in man; assay type: ADME, organism-based, Plasma; settings: human, in vivo
[8] = as §1; assay type: ADME, organism-based, Urine; settings: human, in vivo; at 50 mg/m2; remark: listed apart in the source
[9] = Recovery of epirubicin-glucuronide following intraperitoneal epirubicin at 4 mg.Kg-1 dose in hamster; assay type: ADME, organism-based, Cricetulus griseus, Plasma; settings: chinese hamster, in vivo, ip
[10] = Urinary excretion of epirubicin glucuronide following epirubicin at 60 mg.m-2 dose in cancer patients; assay type: ADME, organism-based, Urine; settings: human, in vivo; at 60 mg/m2
[11] = AUC(0-2 h) of epirubicin-glucuronide following intravenous epirubicin at 1 mg.Kg-1 dose in rabbit; assay type: ADME, organism-based, Oryctolagus cuniculus, New Zealand White, Plasma; settings: in vivo
[12] = (§3) Terminal half-life of epirubicin-glucuronide following intravenous epirubicin at 1 mg.Kg-1 dose in rabbit; assay type: ADME, organism-based, Oryctolagus cuniculus, New Zealand White, Plasma; settings: in vivo
[13] = (§4) Terminal half-life of epirubicin-glucuronide following intravenous epirubicin at 3 mg.Kg-1 dose in rabbit; assay type: ADME, organism-based, Oryctolagus cuniculus, New Zealand White, Plasma; settings: in vivo
[14] = as §4; assay type: ADME, organism-based, Oryctolagus cuniculus, New Zealand White, Plasma; settings: in vivo; remark: listed apart in the source
[15] = Recovery of epirubicinol-glucuronide following intravenous epirubicin at 4 mg.Kg-1 dose in rabbit; assay type: ADME, organism-based, Oryctolagus cuniculus, New Zealand White, Plasma; settings: in vivo
[16] = AUC(0-2 h) of epirubicinol-glucuronide following intravenous epirubicin at 1 mg.Kg-1 dose in rabbit; assay type: ADME, organism-based, Oryctolagus cuniculus, New Zealand White, Plasma; settings: in vivo
[17] = Recovery of epirubicin-glucuronide following intraperitoneal epirubicin at 4 mg.Kg-1 dose in mouse; assay type: ADME, organism-based, CD-1, Plasma; settings: in vivo, ip
[18] = Recovery of epirubicinol-glucuronide following intravenous epirubicin at 4 mg.Kg-1 dose in rat; assay type: ADME, organism-based, SD, Plasma; settings: in vivo
[19] = Recovery of epirubicin-glucuronide following intravenous epirubicin at 4 mg.Kg-1 dose in rabbit; assay type: ADME, organism-based, Oryctolagus cuniculus, New Zealand White, Plasma; settings: in vivo
[20] = Urinary excretion of epirubicin glucuronide following epirubicin at 75-90 mg.m-2 dose in cancer patients; assay type: ADME, organism-based, Urine; settings: human, in vivo
[21] = AUC(0-2 h) of epirubicinol-glucuronide following intravenous epirubicin at 3 mg.Kg-1 dose in rabbit; assay type: ADME, organism-based, Oryctolagus cuniculus, New Zealand White, Plasma; settings: in vivo
[22] = as §2; assay type: ADME, organism-based, Urine; settings: human, in vivo; at 50 mg/m2; remark: listed apart in the source
[23] = Urinary excretion of epirubicinol glucuronide following epirubicin at 60-150 mg.m-2 dose in cancer patients; assay type: ADME, organism-based, Urine; settings: human, in vivo
[24] = Biliary excretion of epirubicinol glucuronide following epirubicin at 50 mg.m-2 dose in cancer patients; assay type: ADME, organism-based, Bile; settings: human, in vivo; at 50 mg/m2
[25] = Recovery of epirubicinol-glucuronide following intraperitoneal epirubicin at 4 mg.Kg-1 dose in mouse; assay type: ADME, organism-based, CD-1, Plasma; settings: in vivo, ip
[26] = as §3; assay type: ADME, organism-based, Oryctolagus cuniculus, New Zealand White, Plasma; settings: in vivo; remark: listed apart in the source
[27] = Recovery of epirubicinol-glucuronide following intraperitoneal epirubicin at 4 mg.Kg-1 dose in hamster; assay type: ADME, organism-based, Cricetulus griseus, Plasma; settings: chinese hamster, in vivo, ip
[28] = Urinary excretion of epirubicin glucuronide following epirubicin at 60-150 mg.m-2 dose in cancer patients; assay type: ADME, organism-based, Urine; settings: human, in vivo
[29] = Urinary excretion of epirubicinol glucuronide following epirubicin at 75-90 mg.m-2 dose in cancer patients; assay type: ADME, organism-based, Urine; settings: human, in vivo
[30] = Recovery of epirubicin-glucuronide following intravenous epirubicin at 1.5 mg.Kg-1 dose in man; assay type: ADME, organism-based, Plasma; settings: human, in vivo
[31] = Terminal half-life of epirubicinol-glucuronide following intravenous epirubicin at 3 mg.Kg-1 dose in rabbit; assay type: ADME, organism-based, Oryctolagus cuniculus, New Zealand White, Plasma; settings: in vivo
[32] = Urinary excretion of epirubicinol glucuronide following epirubicin at 60 mg.m-2 dose in cancer patients; assay type: ADME, organism-based, Urine; settings: human, in vivo; at 60 mg/m2

In the case of `COc1cccc2c1C(=O)c1c(O)c3c(c(O)c1C2=O)C[C@@](O)(C(=O)CO)C[C@@H]3O[C@H]1C[C@H](N)[C@@H](O[C@@H]2O[C@H](C(=O)O)[C@@H](O)[C@H](O)[C@H]2O)[C@H](C)O1`, the Compound recovery [1] was 0 10^-9M, the Compound recovery [2] was 3.3% and the Compound recovery [3] was 4.6%. It also gave an AUC [4] of 15.83 ng·h/mL, a Compound recovery [5] of 1.7% and a t1/2 [6] of 12.6 min. The Compound recovery [7] was 90 10^-9M, the Compound recovery [8] was 4.6% and the Compound recovery [9] was 0 10^-9M. For the same compound, the Compound recovery [10] was 3.2%, the AUC [11] was 7.64 ng·h/mL and the t1/2 [12] was 9 min. The t1/2 [13] was “OUTCOME = Not calculated”, the t1/2 [14] was 29.4 min and the Compound recovery [15] was 0.5 10^-9M. The AUC [16] was 1.47 ng·h/mL, the Compound recovery [17] was 0 10^-9M and the Compound recovery [18] was 0 10^-9M. For the same compound, the Compound recovery [19] was 1.7 10^-9M, the Compound recovery [20] was 3.2% and the AUC [21] was 4.01 ng·h/mL. It also gave a Compound recovery [22] of 0.4%, a Compound recovery [23] of 0.3% and a Compound recovery [24] of 1.9%. For the same compound, the Compound recovery [25] was 0 10^-9M, the t1/2 [26] was 61.2 min and the Compound recovery [27] was 0 10^-9M. The Compound recovery [28] was 1.3%, the Compound recovery [29] was 0.8% and the Compound recovery [30] was 460 10^-9M. The t1/2 [31] was 23.4 min and the Compound recovery [32] was 0.8%.

— ChEMBL document CHEMBL3508140 (2016)
